Tests used:
[1] = system: rat brain receptor sites; conditions: cited from earlier work
[2] = rat; cited from earlier work
[3] = system: muscarinic receptors; experiment: Initial screening at muscarinic receptors; format: binding; conditions: words, on Table 1 data
[4] = system: DBA mice; experiment: Inhibitory (passive) avoidance test, 72 hour retention; format: in vivo, mouse
Text: The inhibitory (or sometimes called passive) avoidance (IA) test is a well accepted animal model of learning/memory used to assess the activity of novel muscarinic agonists to enhance cognitive function (Wanibuchi et al., Eur. J. Pharmacol., 1990, 187:479). Animals are placed in the illuminated (12×14×11 cm) portion of a two-chambered box, from which they enter through a guillotine door to the larger (24×13.5×12 cm) dark compartment of the box. Entry to the dark compartment is accompanied by a mild (0.5 mA), brief (2 seconds) footshock. Initial latencies to cross are recorded, with an imposed 60 second ceiling. Following a 72 hour retention interval, animals are returned to the illuminated chamber, and latency to return to the dark compartment is again recorded, with a ceiling of 180 seconds. No footshock is administered on the test day.
Previous studies have indicated a retention deficit in DBA versus CD1 mice in the 72 hour retention model. Accordingly, adult male DBA mice (n=~15/group) were injected with either the compound of Example 1 or the reference standard RS-86 (0, 0.3, 1.0, or 3.0 mg/kg, i.p.) approximately 45 minutes prior to the training described above. Saline-treated adult male CD1 mice (n=15) served as controls.

[5] = system: male CD1 mice; experiment: Toxicology / side-effects; format: in vivo; conditions: for Fatalities: 0.3, 1.0, 3.0 mg/kg i.p.; for Tolerability: 0.3 and 1.0 mg/kg i.p.
[6] = system: DBA and C57BL/6 mice; experiment: Mouse plus (water) maze, spatial learning; format: in vivo; conditions: 0.3 or 1.0 mg/kg i.p.
Experimental: The mouse plus maze probes spatial learning processes (Decker and McGaugh, Brain Res. 1989, 477:29). Animals are placed at the terminus of one arm of a four-arm maze submerged in opaque (powdered milk) 25° C. water. Their task is to locate a stationary escape platform hidden at the end of one arm of the maze. The platform remains in the same position across all 4 days of testing. Six daily trials are conducted, during which choice accuracy (correct or incorrect) and latency to escape (maximum=60 seconds) are recorded. Animals failing to escape within 60 seconds are gently guided to the platform, where they are allowed to sit for 20 seconds.
Accordingly, adult male DBA and C57 mice (n=~10/group) were treated with the compound of Example 1 or RS-86 (0, 0.3, or 1.0 mg/kg, i.p.) approximately 45 minutes prior to 4 consecutive daily water maze sessions. Choice accuracy was assessed daily, with day 4 accuracy serving as the primary measure of learning.

[7] = system: CD1 mice; experiment: Locomotor activity in automated activity monitors; format: in vivo, mouse
Experimental: Adult male CD1 mice (n=8/group) were injected with the compound of Example 1 or RS-86 (0, 0.3, 1.0, or 3.0 mg/kg, i.p.) approximately 45 minutes prior to placement in automated activity monitors (Omnitech; Columbus, Ohio). These enclosures, measuring 40×40×42 cm, are equipped with a series of photocells and generate measurements of a variety of locomotor activities.

[8] = molecular target: M2 muscarinic receptor (Rattus norvegicus, UniProt P10980); format: binding; conditions: read-out: Ki @ M2 RECEPTOR; Table 1; [3H]QNB, rat pons-medulla, 25° C., pH 7.4
[9] = system: Rat striatal muscarinic receptors; experiment: Agonist intrinsic activity: inhibition of forskolin-activated [3H]cAMP in dissociated rat striatum; format: cell-based
Text: Rat striatal muscarinic receptors are coupled to the inhibition of the conversion of adenosine triphosphate (ATP) to cyclic adenosine monophosphate (cAMP). […] The ATP stores in dissociated rat striatum were labeled with [^3 H]adenine and [^3 H]-cAMP levels were elevated with 10 um forskolin.

[10] = molecular target: T1, M1 muscarinic receptor (Rattus norvegicus, UniProt P08482); experiment: Competition with [3H]pirenzepine at cortical M1 muscarinic receptors; format: binding; conditions: Table 1; [3H]pirenzepine, rat fronto-parietal cortex, 25° C., pH 7.4; read-out: Ki @ M1 RECEPTOR
T1 construct: from tissue; host or cells: adult rat fronto-parietal cortex membranes (homogenate)
T1 sequence (P08482 1-460): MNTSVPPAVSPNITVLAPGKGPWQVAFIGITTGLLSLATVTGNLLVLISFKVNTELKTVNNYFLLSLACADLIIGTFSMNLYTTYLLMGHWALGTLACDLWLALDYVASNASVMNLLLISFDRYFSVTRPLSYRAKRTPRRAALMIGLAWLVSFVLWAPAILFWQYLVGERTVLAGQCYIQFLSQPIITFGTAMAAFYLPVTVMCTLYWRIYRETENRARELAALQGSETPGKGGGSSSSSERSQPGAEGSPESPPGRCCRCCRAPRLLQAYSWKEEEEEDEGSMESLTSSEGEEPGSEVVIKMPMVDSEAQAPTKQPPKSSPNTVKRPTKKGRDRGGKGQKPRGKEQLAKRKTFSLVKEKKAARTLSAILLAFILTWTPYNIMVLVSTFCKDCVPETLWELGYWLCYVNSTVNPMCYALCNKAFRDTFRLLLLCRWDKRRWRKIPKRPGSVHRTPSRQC

[11] = system: cholinergic receptors located in the heart and cortical tissues; conditions: words; cited from earlier work
[12] = system: cortical receptors; conditions: cited from earlier work
[13] = system: cardiac receptors; conditions: cited from earlier work
[14] = system: parietotemporal cortex of humans; conditions: cited from earlier work
[15] = system: acetylcholine receptors; conditions: chronic administration; cited from earlier work
[16] = system: rats; conditions: acutely and chronically administered; cited from earlier work
[17] = system: nigro-striatal dopamine system; conditions: chronically administered, after destruction of nigro-striatal dopamine system; cited from earlier work
[18] = in vivo, cited from earlier work

M2 muscarinic receptor, sequence (P10980 whole entry): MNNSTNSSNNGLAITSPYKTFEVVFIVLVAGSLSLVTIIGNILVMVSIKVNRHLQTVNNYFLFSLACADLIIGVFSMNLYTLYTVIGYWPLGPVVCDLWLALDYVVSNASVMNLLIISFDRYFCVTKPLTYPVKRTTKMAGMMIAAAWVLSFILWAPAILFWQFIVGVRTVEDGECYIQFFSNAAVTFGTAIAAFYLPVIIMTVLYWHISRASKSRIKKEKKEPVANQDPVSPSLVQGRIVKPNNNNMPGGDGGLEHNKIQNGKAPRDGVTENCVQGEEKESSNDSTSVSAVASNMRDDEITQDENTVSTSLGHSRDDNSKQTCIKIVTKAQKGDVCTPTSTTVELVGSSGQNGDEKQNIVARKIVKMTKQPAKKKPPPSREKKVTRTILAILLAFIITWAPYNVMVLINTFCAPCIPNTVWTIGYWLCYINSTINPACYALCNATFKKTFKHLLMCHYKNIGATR

## CC1CCCCN1 (racemic) [(+)isomer of (±)2-methylpiperidine, (+)2-methylpiperidine]
[1]
  Binding of nicotinic ligand: enhances the binding of nicotinic ligand

## O=C1NC(=O)C2(CCNCC2)N1c1ccccc1 [1-phenyl-1,3,8-triazaspiro[4,5]decan-2,4-dione]
[2]
  Metabolite of fluspirilene: major product of the metabolism of the neuroleptic drug, fluspirilene

## CC1OC2(CCN(C)CC2)CN1C=O.O=C(O)C(=O)O (stereo not drawn) [Example 1, 2,8-Dimethyl-1-oxa-3-formyl-3,8-diazaspiro[4,5]decane hydrogen oxalate]
[3]
  Binding to M1 and M2 muscarinic receptors: binds to both M1 and M2 muscarinic receptors
[4]; 0, 0.3, 1.0, 3.0 mg/kg i.p., DBA mice
  Latencies across dose groups: latencies were equivalent across all groups
[4]; 1.0 mg/kg i.p., U=171.5, z=2.04, p<0.05
  72 hour retention deficit of DBA mice: significant attenuation of the observed retention deficit
[4]; 3.0 mg/kg i.p., U=172, z=2.0, p<0.05
  72 hour retention deficit of DBA mice: significant attenuation of the observed retention deficit
[5]; 3.0 mg/kg i.p.
  Signs observed: some dyspnea and a mild decrease in spontaneous activity
[5]
  Fatalities: No fatalities
  Tolerability: well tolerated
[5]; compared with RS-86
  Side-effects in general versus RS-86: more benign side-effects
[6]
  Enhancement of learning (choice accuracy): modest, albeit statistically non-significant, enhancement of learning
[6]; from second day of testing
  Performance of DBA mice versus chance level: consistently performed above chance levels
[7]; all doses (0, 0.3, 1.0, 3.0 mg/kg i.p.)
  Mean horizontal activity counts: equivalent across all doses
[7]; compared with RS-86
  Separation of hypoactivity from cognitive enhancement versus RS-86: more favorable separation of hypoactivity from the desired activity of cognitive enhancement
[8]
  Ki: 30 µM
[9]; Rattus norvegicus, read-out: INTRINSIC ACTIVITY (% relative to carbacol)
  Emax: 53%
[9]; rat striatum
  Agonist character at central muscarinic receptor: central muscarinic receptor agonist with partial agonist activity
[10]
  Ki: 32 µM

## CCN1C(=O)CC2(CCN(C)CC2)C1=O [RS-86]
[4]; 3.0 mg/kg i.p.
  Animals that completely failed to cross to the dark compartment in training: nine
[4]; 3.0 mg/kg i.p., F (4,72)=25.8, p<0.00001
  Training latencies relative to all other groups: elevated relative to all other groups
[4]; RS-86 0.3-3.0 mg/kg i.p.
  72 hour retention deficit of untreated DBAs: apparently eliminated the 72 hour retention deficit
[5]; 3.0 mg/kg i.p.
  Classic signs of cholinostimulation: salivation, lacrimation, urination, defecation, and tremor
  Hypothermic response versus similar dose of Example 1: greater hypothermic response
  Signs observed: dyspnea and decreased activity
[5]
  Fatalities: No fatalities
  Tolerability: well tolerated
[11]
  Potency and selectivity: poor potency and lack of selectivity
[6]
  Water maze performance in DBA or C57 mice: no beneficial effect on water maze performance
[12]
  Agonism at cortical receptors: partial agonist
[7]; 3.0 mg/kg i.p., F (3,28)=29.17, p<0.00001
  Horizontal activity: profound and significant [F (3,28)=29.17, p<0.00001] reduction in horizontal activity
[7]; 0.3 or 1.0 mg/kg i.p.
  Activity versus animals dosed with the compound of Example 1: did not significantly differ
[13]
  Agonism at cardiac receptors: full agonist

## CNC1(C)C2CCC(C2)C1(C)C (stereo not drawn) [mecamylamine]
[14]
  Resting cortical perfusion: reduce resting cortical perfusion

## CN1CCC[C@H]1c1cccnc1 [nicotine]
[15]
  Effect on affinity of acetylcholine for the receptor: without affecting the affinity of acetylcholine for the receptor
  Up-regulation of the number of acetylcholine receptors: 50-100%
[16]
  Cognitive function: enhance cognitive function in rats
[17]
  Action on neuronal and vascular functions: regenerative/protective action
[18]; po
  Oral bioavailability: poor oral bioavailability
[18]
  Pharmacokinetics: unfavorable pharmacokinetics

Source: US5221675A, “Aza-spirocyclic compounds that enhance cholinergic neurotransmission” (Abbott Laboratories, priority 1991, dated 1993)
